The target of experiment [1] is T1, plasma membrane H+-ATPase (Arabidopsis thaliana, UniProt P19456).
T1 sequence (P19456 1-948): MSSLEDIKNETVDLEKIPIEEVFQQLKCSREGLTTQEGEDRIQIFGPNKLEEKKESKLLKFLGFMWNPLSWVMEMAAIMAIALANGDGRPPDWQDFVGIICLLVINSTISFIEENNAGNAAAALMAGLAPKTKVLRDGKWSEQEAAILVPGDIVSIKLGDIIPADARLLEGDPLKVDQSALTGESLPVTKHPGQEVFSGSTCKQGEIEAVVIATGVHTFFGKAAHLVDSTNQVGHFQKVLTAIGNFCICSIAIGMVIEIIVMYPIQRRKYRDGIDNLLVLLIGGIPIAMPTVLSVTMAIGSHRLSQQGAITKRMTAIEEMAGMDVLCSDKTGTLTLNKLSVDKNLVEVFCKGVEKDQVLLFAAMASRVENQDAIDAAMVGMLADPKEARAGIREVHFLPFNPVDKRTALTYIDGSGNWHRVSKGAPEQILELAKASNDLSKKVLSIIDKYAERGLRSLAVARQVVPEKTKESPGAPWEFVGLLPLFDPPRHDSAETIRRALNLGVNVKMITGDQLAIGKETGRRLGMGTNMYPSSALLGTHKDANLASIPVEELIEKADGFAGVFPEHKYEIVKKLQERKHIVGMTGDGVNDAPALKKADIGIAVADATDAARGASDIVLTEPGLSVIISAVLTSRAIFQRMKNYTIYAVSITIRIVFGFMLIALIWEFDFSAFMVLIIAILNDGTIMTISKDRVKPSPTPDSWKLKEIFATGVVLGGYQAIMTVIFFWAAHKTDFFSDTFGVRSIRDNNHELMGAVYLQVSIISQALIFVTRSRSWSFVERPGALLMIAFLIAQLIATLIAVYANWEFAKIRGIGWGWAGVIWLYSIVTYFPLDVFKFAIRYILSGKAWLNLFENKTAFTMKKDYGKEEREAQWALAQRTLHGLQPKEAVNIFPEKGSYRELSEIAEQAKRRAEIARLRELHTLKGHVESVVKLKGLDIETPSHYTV
Nature of the experiment: Inhibition of H+ ATPase ATP hydrolytic activity by platin and holmium ions (Pi production). It is filed as biochemical. Conditions: 20 mM Mops pH 6.5, 50 mM KCl, 8 mM MgCl2, 3 mM ATP; various concentrations; FIG. 12; numbers only in figure. The procedure:
Assay conditions are 20 mM Mops, pH: 6.5, 50 mM KCl, 8 mM MgCl2 and 3 mM ATP. Production of Pi was measured by standard […] tests. The results are shown in FIG. 12A and the activity is given as the percentage of the ATP hydrolytic activity in the absence of various concentrations of Pt (±StDev).
Assay conditions are 20 mM Mops, pH: 6.5, 50 mM KCl, 8 mM MgCl2 and 3 mM ATP. Production of Pi was measured by standard […] tests. The results are shown in FIG. 12B and the activity is given as the percentage of the ATP hydrolytic activity in the absence of various concentrations of Ho (±StDev).

Experiment [2] relates to plasma membrane H+-ATPases. The following applies: vanadate in its plus 5 valence state; cited from earlier work.
In experiment [3] the target is Sarcoplasmic Endoplasmic Reticulum Ca2+-ATPase (SERCA). Conditions: blocking SERCA; cited from earlier work.

Take `[Ho+3]` [Ho]: the “ATP hydrolytic activity of plasma membrane H+-ATPase” value in experiment [1] was “inhibits”. Take `[O]=[V]([O-])([O-])[O-]` [Vanadate]: in experiment [2], the “concentration at which the pumps are inhibited” value is recorded as “μM range”. For the compound `C/C=C(/C)C(=O)O[C@H]1C(C)=C2[C@H]([C@@H]1OC(=O)CCCCCCC)[C@@](C)(OC(C)=O)C[C@H](OC(=O)CCC)[C@@]1(O)[C@H]2OC(=O)[C@@]1(C)O` [thapsigargin], the Kd result in experiment [3] was “sub-nanomolar range”.

Source of the values: patent US8577624B2, “Crystal structure of a plasma membrane proton pump” (Aarhus Universitet, priority 2007, dated 2013).
